pIC50: −log10 of the molar value. Several values for one entry are separate records, joined by “and”; a condition that tells them apart may be missing. Equal values may be shown once.
Test system: 945468-187-T-J3-PDC spheroids with HUVEC/MSC, viability
Assay: Anticancer human tumor 945468-187-T-J3-PDC patient-derived rectal carcinoma cell line growth inhibition [PI3K]
Conditions: for viability, T/C: stronger effect = lower value; active = viability on the fitted dose curve at most 10% of control; inactive = the rest
Description: Combinatorial screen of targeted agents with the PI3K inhibitors inavolisib, alpelisib, duvelisib, and copanlisib in multi-cell type tumor spheroids
A high-throughput screen of multi-cell type tumor spheroids was designed to identify active combinations of targeted small molecules and PI3K pathway inhibitors. Complex spheroids include a stromal component modeled by human endothelial cells (HUVEC) and fibroblasts modeled by human mesenchymal stem cells (MSCs). The concentration ranges selected for each drug and investigational agent were based upon clinically achievable concentrations if the clinical Cmax of the agent was known.
Compounds. The drugs and investigational agents: inavolisib (NSC800729), alpelisib (NSC765974), duvelisib (NSC772469), copanlisib (NSC816437), ipatasertib (NSC767898), afuresertib (NSC778305), talazoparib (NSC767125), sapanisertib (NSC764658), selumetinib (NSC741078), tovorafenib (DAY101, NSC766906), vemurafenib (NSC761431), ravoxertinib (NSC781343), sotorasib (NSC818433), MRTX1133 (NSC 836407), abemaciclib (NSC 768073), palbociclib (NSC758247), venetoclax (NSC 766270), SY5609 (NSC837396), enzalutamide (NSC755605), and darolutamide (NSC825331), were obtained from the National Cancer Institute (NCI) Developmental Therapeutics Program Chemical Repository. The FDA-approved anticancer drug set is available from the NCI Developmental Therapeutics Program. […] The stock solutions were prepared in dimethyl sulfoxide (DMSO, Sigma-Aldrich, St. Louis, MO, cat. D2650) at 800-fold the tested concentration and stored at -70 degrees C prior to their use. All drugs and investigational agents were tested over a range starting from a high concentration at or near the clinical Cmax and decreasing in half-log increments. If the clinical Cmax for an agent had not been determined, the highest concentration tested was 10 microM.
Cell Culture. All cells were maintained in an incubator at 37 degrees C and 5% CO2 with 95% humidity. The PDC lines were cultured according to standard operating procedures established by the NCI PDMR (https://pdmr.cancer.gov/sops/default.htm). All PDCs were thawed and cultured in Matrigel-coated flasks prepared with a working solution of 1X Ham's F-12 nutrient mix, without supplementation (Invitrogen, Waltham, MA, cat. 11765054), 100 U/mL penicillin-streptomycin (Invitrogen, cat. 15140122), and 2.5% Matrigel (Corning Inc., Corning, NY, cat. 354248) for the first three passages. The 354836-022-R-J1-PDC, 475296-252-R-J1-PDC, and 997726-040-R-J2-PDC lines were cultured in 6A media, which includes advanced DMEM/F-12 (Thermo Fisher Scientific, cat. 12634028), 10 mM HEPES (Thermo Fisher Scientific, cat. 15630080), 1X GlutaMAX supplement (Thermo Fisher Scientific, cat. 35050061), 0.1 mg/mL primocin (InvivoGen, San Diego, CA, cat. ant-pm-2), 10% defined fetal bovine serum, heat inactivated (HyClone Laboratories Inc., Logan, UT, cat. SH30070.03HI), 50% L-WRN conditioned media (ATCC, cat. CRL-3276), 1.25 mM N-Acetyl-L-cysteine (Sigma-Aldrich, cat. A9165), 10 mM nicotinamide (Sigma-Aldrich, cat. N0636), 1X B-27 supplement (Thermo Fisher Scientific, cat. 17504044), 1X N-2 supplement (Thermo Fisher Scientific, cat. 17502048), and 10 microM Y-27632 dihydrochloride (Tocris Bioscience, Bristol, United Kingdom, cat. 1254). The 624824-186-R-J2-PDC line was cultured in 6C/Colon 1B media, which includes all 6A media components plus 50 ng/mL human EGF recombinant protein (Thermo Fisher Scientific, cat. PHG0311). […]

[1] = curve of first compound, second compound 0.00316 µM
[2] = curve of first compound, second compound 0.01 µM
[3] = curve of first compound, second compound 0.0316 µM
[4] = curve of first compound, second compound 0.1 µM
[5] = curve of first compound, second compound 0.316 µM
[6] = curve of first compound, second compound 1 µM
[7] = second compound 0.00316 µM, first compound 0.0316 µM
[8] = second compound 0.00316 µM, first compound 0.1 µM
[9] = second compound 0.01 µM, first compound 0.0316 µM
[10] = second compound 0.01 µM, first compound 0.1 µM
[11] = second compound 0.0316 µM, first compound 0.0316 µM
[12] = second compound 0.0316 µM, first compound 0.1 µM
[13] = second compound 0.1 µM, first compound 0.0316 µM
[14] = second compound 0.1 µM, first compound 0.1 µM
[15] = second compound 0.316 µM, first compound 0.0316 µM
[16] = second compound 0.316 µM, first compound 0.1 µM
[17] = second compound 1 µM, first compound 0.0316 µM
[18] = second compound 1 µM, first compound 0.1 µM
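Note: spheroids exposed to agents for 7 days before viability read.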

CC(C)n1nc(-c2ccc3oc(N)nc3c2)c2c(N)ncnc21 + COc1c(OCCCN2CCOCC2)ccc2c3n(c(=NC(=O)c4cnc(N)nc4)nc12)CCN3
7.59: pIC50 [3]
7.20: pIC50 [2]
> 9.50: pIC50 [4] | pIC50 [5] | pIC50 [6]
inactive: viability, T/C (second compound 0.00316 µM, first compound 0.000316 µM) 104% | viability, T/C (second compound 0.00316 µM, first compound 0.001 µM) 85.7% | viability, T/C (second compound 0.00316 µM, first compound 0.00316 µM) 95.1% | viability, T/C (second compound 0.00316 µM, first compound 0.01 µM) 78.7% | viability, T/C [7] 92.8% | viability, T/C [8] 37.2% | viability, T/C (second compound 0.01 µM, first compound 0.000316 µM) 97.2% | viability, T/C (second compound 0.01 µM, first compound 0.001 µM) 81.2% | viability, T/C (second compound 0.01 µM, first compound 0.00316 µM) 93.9% | viability, T/C (second compound 0.01 µM, first compound 0.01 µM) 86.2% | viability, T/C [9] 90.4% | viability, T/C [10] 22.7% | viability, T/C (second compound 0.0316 µM, first compound 0.000316 µM) 88.7% | viability, T/C (second compound 0.0316 µM, first compound 0.001 µM) 77.2% | viability, T/C (second compound 0.0316 µM, first compound 0.00316 µM) 85% | viability, T/C (second compound 0.0316 µM, first compound 0.01 µM) 78.4% | viability, T/C [11] 43.6% | viability, T/C [12] 17.1% | viability, T/C (second compound 0.1 µM, first compound 0.000316 µM) 46% | viability, T/C (second compound 0.1 µM, first compound 0.001 µM) 34% | viability, T/C (second compound 0.1 µM, first compound 0.00316 µM) 33.9% | viability, T/C (second compound 0.1 µM, first compound 0.01 µM) 26.2% | viability, T/C [13] 20.2% | viability, T/C [14] 13.6% | viability, T/C (second compound 0.316 µM, first compound 0.000316 µM) 20.6% | viability, T/C (second compound 0.316 µM, first compound 0.001 µM) 21.3% | viability, T/C (second compound 0.316 µM, first compound 0.00316 µM) 21.6% | viability, T/C (second compound 0.316 µM, first compound 0.01 µM) 17.6% | viability, T/C [15] 16.6% | viability, T/C [16] 13.7% | viability, T/C (second compound 1 µM, first compound 0.000316 µM) 18.5% | viability, T/C (second compound 1 µM, first compound 0.001 µM) 15.9% | viability, T/C (second compound 1 µM, first compound 0.00316 µM) 14.1% | viability, T/C (second compound 1 µM, first compound 0.01 µM) 13.2% | viability, T/C [17] 12.6% | viability, T/C [18] 10.5%
7.12: pIC50 [1]

C#Cc1c(F)ccc2cc(O)cc(-c3ncc4c(N5CC6CCC(C5)N6)nc(OCC56CCCN5CC(F)C6)nc4c3F)c12 (stereo not given)
inactive: viability, T/C (compound 0.0316 µM) 96.4% [middle of 4 runs] | viability, T/C (compound 0.1 µM) 95.8% [middle of 4 runs] | viability, T/C (compound 0.316 µM) 98.2% [middle of 4 runs] | viability, T/C (compound 1 µM) 114% (2×) and 95.9% and 89.8% | viability, T/C (compound 3.16 µM) 125% [middle of 4 runs] | viability, T/C (compound 10 µM) 113% [middle of 4 runs]
< 5.00: pIC50 (curve of compound)

CC(Cn1ccc(-c2ccc(C#N)c(Cl)c2)n1)NC(=O)c1cc(C(C)O)[nH]n1 (stereo not given) + CC(Nc1ccc2c(c1)OCCn1cc(N3C(=O)OCC3C(F)F)nc1-2)C(N)=O
< 5.00: pIC50 [1] | pIC50 [2] | pIC50 [3] | pIC50 [4] | pIC50 [5] | pIC50 [6]
inactive: viability, T/C [7] 95.2% | viability, T/C [8] 99.4% | viability, T/C (second compound 0.00316 µM, first compound 0.316 µM) 106% | viability, T/C (second compound 0.00316 µM, first compound 1 µM) 112% | viability, T/C (second compound 0.00316 µM, first compound 3.16 µM) 114% | viability, T/C (second compound 0.00316 µM, first compound 10 µM) 99.6% | viability, T/C [9] 111% | viability, T/C [10] 104% | viability, T/C (second compound 0.01 µM, first compound 0.316 µM) 93.6% | viability, T/C (second compound 0.01 µM, first compound 1 µM) 111% | viability, T/C (second compound 0.01 µM, first compound 3.16 µM) 114% | viability, T/C (second compound 0.01 µM, first compound 10 µM) 106% | viability, T/C [11] 115% | viability, T/C [12] 107% | viability, T/C (second compound 0.0316 µM, first compound 0.316 µM) 101% | viability, T/C (second compound 0.0316 µM, first compound 1 µM) 111% | viability, T/C (second compound 0.0316 µM, first compound 3.16 µM) 109% | viability, T/C (second compound 0.0316 µM, first compound 10 µM) 107% | viability, T/C [13] 109% | viability, T/C [14] 115% | viability, T/C (second compound 0.1 µM, first compound 0.316 µM) 115% | viability, T/C (second compound 0.1 µM, first compound 1 µM) 114% | viability, T/C (second compound 0.1 µM, first compound 3.16 µM) 107% | viability, T/C (second compound 0.1 µM, first compound 10 µM) 99.1% | viability, T/C [15] 107% | viability, T/C [16] 107% | viability, T/C (second compound 0.316 µM, first compound 0.316 µM) 96.7% | viability, T/C (second compound 0.316 µM, first compound 1 µM) 115% | viability, T/C (second compound 0.316 µM, first compound 3.16 µM) 108% | viability, T/C (second compound 0.316 µM, first compound 10 µM) 102% | viability, T/C [17] 80.5% | viability, T/C [18] 68.6% | viability, T/C (second compound 1 µM, first compound 0.316 µM) 75.4% | viability, T/C (second compound 1 µM, first compound 1 µM) 71.2% | viability, T/C (second compound 1 µM, first compound 3.16 µM) 74.8% | viability, T/C (second compound 1 µM, first compound 10 µM) 71.1%

CC(Nc1ncnc2nc[nH]c12)c1cc2cccc(Cl)c2c(=O)n1-c1ccccc1 (stereo not given)
inactive: viability, T/C (compound 0.0316 µM) 100% [middle of 8 runs] | viability, T/C (compound 0.1 µM) 96% [middle of 8 runs] | viability, T/C (compound 0.316 µM) 96% [middle of 8 runs] | viability, T/C (compound 1 µM) 99.5% [middle of 8 runs] | viability, T/C (compound 3.16 µM) 98.2% [middle of 8 runs] | viability, T/C (compound 10 µM) 98.8% [middle of 8 runs]
< 5.00: pIC50 (compound alone, run of 06/13/2023)

CCN1CCN(Cc2ccc(Nc3ncc(F)c(-c4cc(F)c5nc(C)n(C(C)C)c5c4)n3)nc2)CC1
< 6.00: pIC50 (curve of compound)
inactive: viability, T/C (compound 0.00316 µM) 91.2% [middle of 4 runs] | viability, T/C (compound 0.01 µM) 103% and 85.4% and 90.3% (2×) | viability, T/C (compound 0.0316 µM) 97.6% [middle of 4 runs] | viability, T/C (compound 0.1 µM) 107% [middle of 4 runs] | viability, T/C (compound 0.316 µM) 110% [middle of 4 runs] | viability, T/C (compound 1 µM) 99.2% [middle of 4 runs]

Reference: PubChem BioAssay AID1963968 (Molecular Pharmacology Branch, DTP, NCI, 2024)
